Results taken from patent publication US7973051B2 (Hoffman-La Roche Inc., priority 2007, dated 2011).

Biological target: T1, human liver FBPase (Homo sapiens, UniProt P09467)
T1 construct: made in house; host or cells: E. coli
T1 sequence (P09467 2-338 limits assumed): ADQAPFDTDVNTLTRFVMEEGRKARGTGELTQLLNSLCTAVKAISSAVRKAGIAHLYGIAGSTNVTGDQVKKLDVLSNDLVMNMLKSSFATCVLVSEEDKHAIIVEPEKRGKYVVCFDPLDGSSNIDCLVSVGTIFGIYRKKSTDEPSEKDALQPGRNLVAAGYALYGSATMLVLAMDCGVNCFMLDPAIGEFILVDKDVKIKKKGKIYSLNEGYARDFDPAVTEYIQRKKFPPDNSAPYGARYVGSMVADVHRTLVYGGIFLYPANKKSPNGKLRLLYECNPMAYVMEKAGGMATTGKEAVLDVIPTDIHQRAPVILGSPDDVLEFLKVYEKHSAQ
Experiment: FBPase assay: inorganic phosphate release (malachite green)
Assay type: biochemical
Conditions: recombinant human liver FBPase, 50 μM fructose-1,6-bisphosphate, read-out at 620 nm
Method: The following tests were carried out for evaluating the inhibitory activity of the compounds of the present invention against human liver FBPase (Swissprot Data base reference P09467, entry F16P_HUMAN).
Human liver FBPase cDNA (NM_000507) was purchased from Origene Technologies, Inc, subcloned in a vector for expression in E. Coli., and sequenced. Recombinant human liver FBPase (hlFBPase) was purified according to the following protocol that uses heat denaturation similarly to that described by El-Maghrabi et. al. [El-Maghrabi, M. R. et al. “Isolation of a human liver fructose-1,6-bisphosphatase cDNA and expression of the protein in Escherichia coli.” J Biol Chem 268:9466-9472, 1993.]. Briefly, E. coli cells, transiently expressing very high levels of soluble and active human liver FBPase, were suspended in 20 mM Tris-HCl pH 7.5, 1 mM EDTA, 1 mM DTT and were lysed by French press. The soluble extract was heat denatured at 65° C. for 5 min, and insoluble, denatured proteins were removed by centrifugation. The extract was then applied to a BioRad Macro-Prep High Q column equilibrated with 20 mM Tris-HCl pH 7.5, 1 mM EDTA, 1 mM DTT and the flow-through (containing FBPase activity) was collected and applied to a BioRad Macro-Prep HS column equilibrated with 20 mM HEPES pH 7.2, 1 mM DTT. A gradient of increasing NaCl concentration was then applied to the HS column and fractions were collected. Fractions containing active FBPase were pooled and further purified by size exclusion chromatography on a Sephacryl S200 column equilibrated in 20 mM Tris-HCl pH 7.5, 150 mM NaCl, 1 mM EDTA, 1 mM DTT. Purity of the enzyme preparation was >90% as assessed by Mass spectrometry.
Recombinant human liver FBPase (hlFBPase) activity was assayed through measuring the inorganic phosphate release that results from the hydrolysis of Fructose-1,6-bisphosphate by the enzyme. As described by Baykov A. A. et al. in [Baykov A. A et al., “Malachite Green procedure for orthophosphate determination and its use in alkaline phosphatase-based enzyme immunoassays”. Anal. Biochem., 171:266-270, 1988], inorganic phosphate can be readily quantified by spectrophotometry at 620 nm after complexation with ammonium molybdate/malachite green reagent. Enzymatic reaction was carried out with modifications of the procedure described by Wright S. W. et al. [Wright S. W. et al., “Anilinoquinazoline inhibitors of Fructose-1,6-bisphosphatase bind to a novel allosteric site: synthesis, in vitro characterization, and X-ray crystallography”. J. Med. Chem. 45:3865-3877, 2002]. Specifically, the reaction was carried out in 96 well plates in a final volume of 100 μl in the presence or in the absence of allosteric inhibitors. Reaction was started adding 25 ng of hlFBPase to the reaction mixture containing 50 mM HEPES-KOH buffer pH 7.2, 2 mM MgCl2, 2 mM EDTA, 1 mM DTT, 50 μM fructose-1,6-bisphosphate and 1% DMSO. After 50 minutes incubation at room temperature, the phosphate released was allowed to form a colored complex for 10 min by adding 150 μl of ammonium molybdate/malachite green reagent containing 0.03% malachite green, 0.2% ammonium molybdate, 0.05% Triton X-100 and 0.7 M H2SO4 in water that was stirred for 30 min at room temperature and filtered through 0.2 μm filter. Under these conditions, the assay was linear with time and able to detect FBPase inhibition after spectrophotometric read-out at 620 nm.

SMILES | IC50 [nM]
Cn1c(S(=O)(=O)NC(=O)Nc2ncc(Br)s2)cc2ccccc21 [Example 8, N-[(5-Bromo-1,3-thiazol-2-yl)carbamoyl]-1-methyl-1H-indole-2-sulfonamide] | 1100
CCc1sc(NC(=O)NS(=O)(=O)c2cc(C)c(CCOC(C)=O)s2)nc1C(C)C [Example 75, 2-[5-({[(5-Ethyl-4-isopropyl-1,3-thiazol-2-yl)carbamoyl]amino}sulfonyl)-3-methyl-2-thienyl]ethyl acetate] | 256
COCc1nc(NC(=O)NS(=O)(=O)c2cc(C)c(CCOC(C)=O)s2)sc1SC [Example 87, 2-{5-[({[4-(Methoxymethyl)-5-(methylthio)-1,3-thiazol-2-yl]carbamoyl}amino)sulfonyl]-3-methyl-2-thienyl}ethyl acetate] | 501
Cn1cc(S(=O)(=O)NC(=O)Nc2ncc(Br)s2)c2ccc(OCc3ccccc3)cc21 [Example 28, 6-(Benzyloxy)-N-[(5-bromo-1,3-thiazol-2-yl)carbamoyl]-1-methyl-1H-indole-3-sulfonamide] | 363
COC(=O)c1ccc2c(S(=O)(=O)NC(=O)Nc3ncc(Br)s3)cn(C)c2c1 [Example 27, Methyl 3-({[(5-bromo-1,3-thiazol-2-yl)carbamoyl]amino}sulfonyl)-1-methyl-1H-indole-6-carboxylate] | 450
COc1cccc2cc(S(=O)(=O)NC(=O)Nc3ncc(Br)s3)n(C)c12 [Example 40, N-[(5-bromo-1,3-thiazol-2-yl)carbamoyl]-7-methoxy-1-methyl-1H-indole-2-sulfonamide] | 329
COCCc1sc(S(=O)(=O)NC(=O)Nc2nc3c(OC)cccc3s2)cc1C [Example 89, N-[(4-Methoxy-1,3-benzothiazol-2-yl)carbamoyl]-5-(2-methoxyethyl)-4-methylthiophene-2-sulfonamide] | 263
Cc1noc(C)c1-c1ccc2sc(S(=O)(=O)NC(=O)Nc3ncc(Br)s3)cc2c1 [Example 16, N-[(5-bromo-1,3-thiazol-2-yl)carbamoyl]-5-(3,5-dimethylisoxazol-4-yl)-1-benzothiophene-2-sulfonamide] | 830
COC(=O)c1cccc2c(S(=O)(=O)NC(=O)Nc3ncc(Br)s3)cn(C)c12 [Example 32, Methyl 3-({[(5-bromo-1,3-thiazol-2-yl)carbamoyl]amino}sulfonyl)-1-methyl-1H-indole-7-carboxylate] | 653
COc1cnc(NC(=O)NS(=O)(=O)c2cn(C)c3c(OCCOC(C)=O)cccc23)s1 [Example 46, 2-{[3-({[(5-Methoxy-1,3-thiazol-2-yl)carbamoyl]amino}sulfonyl)-1-methyl-1H-indol-7-yl]oxy}ethyl acetate] | 3500
Cc1noc(C)c1-c1cccc2cc(S(=O)(=O)NC(=O)Nc3ncc(Br)s3)sc12 [Example 21, N-[(5-Bromo-1,3-thiazol-2-yl)carbamoyl]-7-(3,5-dimethylisoxazol-4-yl)-1-benzothiophene-2-sulfonamide] | 447
COc1sc(NC(=O)NS(=O)(=O)c2cn(C)c3c(OCC(N)=O)cccc23)nc1C [Example 53, 2-{[3-({[(5-Methoxy-4-methyl-1,3-thiazol-2-yl)carbamoyl]amino}sulfonyl)-1-methyl-1H-indol-7-yl]oxy}acetamide] | 764
O=C(Nc1ncc(Br)s1)NS(=O)(=O)c1cc2cccc(-c3ccncc3)c2s1 [Example 22, N-[(5-Bromo-1,3-thiazol-2-yl)carbamoyl]-7-pyridin-4-yl-1-benzothiophene-2-sulfonamide] | 440
O=C(Nc1ncc(Br)s1)NS(=O)(=O)c1csc2ccc(Cl)cc12 [Example 12, N-[(5-Bromo-1,3-thiazol-2-yl)carbamoyl]-5-chloro-1-benzothiophene-3-sulfonamide] | 370
COCCc1sc(S(=O)(=O)NC(=O)Nc2nc3cc(OC)ccc3s2)cc1C [Example 45, N-[(5-Methoxy-1,3-benzothiazol-2-yl)carbamoyl]-5-(2-methoxyethyl)-4-methylthiophene-2-sulfonamide] | 402
Cc1cc(S(=O)(=O)NC(=O)Nc2nc(-c3ccccc3)c(C)s2)cs1 [Example 65, 5-Methyl-N-[(5-methyl-4-phenyl-1,3-thiazol-2-yl)carbamoyl]thiophene-3-sulfonamide] | 300
CC(=O)OCCOc1cccc2c(S(=O)(=O)NC(=O)Nc3ncc(Br)s3)cn(C)c12 [Example 48, 2-{[3-({[(5-Bromo-1,3-thiazol-2-yl)carbamoyl]amino}sulfonyl)-1-methyl-1H-indol-7-yl]oxy}ethyl acetate] | 429

Stronger by IC50, values ahead:

IC50 [nM] | SMILES
212 | CCOC(=O)COc1cccc2c(S(=O)(=O)NC(=O)Nc3ncc(Br)s3)cn(C)c12 [Example 50, Ethyl {[3-({[(5-bromo-1,3-thiazol-2-yl)carbamoyl]amino}sulfonyl)-1-methyl-1H-indol-7-yl]oxy}acetate]
177 | Cc1cc(S(=O)(=O)NC(=O)Nc2nc(C)c(SC(F)(F)F)s2)sc1CCO [Example 98, 6-(2-Hydroxyethyl)-4-methyl-N-({4-methyl-5-[(trifluoromethyl)thio]-1,3-thiazol-2-yl}carbamoyl)thiophene-2-sulfonamide]
168 | CCc1sc(NC(=O)NS(=O)(=O)c2csc(C)c2)nc1C(C)C [Example 78, N-[(5-Ethyl-4-isopropyl-1,3-thiazol-2-yl)carbamoyl]-5-methylthiophene-3-sulfonamide]
155 | CCc1nc(NC(=O)NS(=O)(=O)c2cc(C)c(CCOC)s2)sc1Br [Example 58, N-[(5-Bromo-4-ethyl-1,3-thiazol-2-yl)carbamoyl]-5-(2-methoxyethyl)-4-methylthiophene-2-sulfonamide]
149 | CCc1sc(NC(=O)NS(=O)(=O)c2cc(C)c(CCOC(C)=O)s2)nc1C [Example 68, 2-[5-({[(5-Ethyl-4-methyl-1,3-thiazol-2-yl)carbamoyl]amino}sulfonyl)-3-methyl-2-thienyl]ethyl acetate]
144 | CCc1nc(NC(=O)NS(=O)(=O)c2cc(C)c(CCOC)s2)sc1SC [Example 82, N-{[4-Ethyl-5-(methylthio)-1,3-thiazol-2-yl]carbamoyl}-5-(2-methoxyethyl)-4-methylthiophene-2-sulfonamide]
105 | COc1cccc2cc(S(=O)(=O)NC(=O)Nc3ncc(Br)s3)sc12 [Example 39, N-[(5-bromo-1,3-thiazol-2-yl)carbamoyl]-7-methoxy-1-benzothiophene-2-sulfonamide]
104 | Cn1cc(S(=O)(=O)NC(=O)Nc2ncc(Br)s2)c2cccc(OCCO)c21 [Example 49, N-[(5-Bromo-1,3-thiazol-2-yl)carbamoyl]-7-(2-hydroxyethoxy)-1-methyl-1H-indole-3-sulfonamide]
78 | CCc1nc(NC(=O)NS(=O)(=O)c2cc(C)c(CCO)s2)sc1SC [Example 84, N-{[4-Ethyl-5-(methylthio)-1,3-thiazol-2-yl]carbamoyl}-5-(2-hydroxyethyl)-4-methylthiophene-2-sulfonamide]
38 | COc1ccc(Cl)c2sc(NC(=O)NS(=O)(=O)c3cc(C)c(CCO)s3)nc12 [Example 92, N-[(7-Chloro-4-methoxy-1,3-benzothiazol-2-yl)carbamoyl]-5-(2-hydroxyethyl)-4-methylthiophene-2-sulfonamide]
